In PubChem BioAssay AID1552 (Sanford-Burnham Center for Chemical Genomics, 2009):
The source made the active and inactive calls. How the calls were made is not given here.

These molecules were tested against Ubiquitin-conjugating enzyme E2 N (Homo sapiens) (UniProt P61088) (assay: UBE2N binders by NMR, biophysical, purified protein (AID 1552)). Settings: NMR binding to purified UBE2N.
Chain of Ubiquitin-conjugating enzyme E2 N (Homo sapiens) (P61088 whole entry, looked up): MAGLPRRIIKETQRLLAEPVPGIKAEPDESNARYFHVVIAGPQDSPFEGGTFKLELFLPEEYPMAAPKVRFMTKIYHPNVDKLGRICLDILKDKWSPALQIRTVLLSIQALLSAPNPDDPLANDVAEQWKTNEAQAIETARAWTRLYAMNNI
`Cc1ncoc1C(=O)Nc1ncc([N+](=O)[O-])s1` was tested, and the Kd was > 4 mM (inactive).
In the case of `COc1ccccc1-c1nc(-c2ccc(C)nc2OC)no1`, the Kd is reported as > 4 mM (inactive).
`O=C1C=CC(=O)c2c(O)cccc21` was tested, and the Kd was > 4 mM (inactive).
With `OCc1ncoc1-c1ccccc1` the Kd was > 4 mM (inactive).
`COc1cccc(NC(=O)c2ocnc2C)c1` was tested, and the Kd was > 4 mM (inactive).
`COC1(C)CCC2OC2(C)CCC2C1CC2(C)C` (stereo not given) was tested, and the Kd was > 4 mM (inactive).
`O=C(O)c1ccc(Oc2ccccc2)nc1` was tested, and the Kd was > 4 mM (inactive).
For `COc1ccc([C@@H]2CC(=O)c3c(O)cc(O[C@@H]4O[C@H](CO[C@H]5O[C@@H](C)[C@H](O)[C@@H](O)[C@H]5O)[C@@H](O)[C@H](O)[C@H]4O)cc3O2)cc1O`, the Kd was > 4 mM (inactive).
For `Fc1ccc(N2CCNCC2)cc1`, the Kd was > 4 mM (inactive).
With `COc1ccc([C@@H](C)C(=O)c2ccc(O)cc2O)cc1` the Kd was > 4 mM (inactive).
For `O=C(O)c1ccc2nsnc2c1`, the Kd was > 4 mM (inactive).
In the case of `Cn1ncc(C(=O)NC2CCCCC2)c1Cl`, the Kd is reported as > 4 mM (inactive).
In the case of `Cc1cc(=O)cc(C)n1NC(N)=S`, the Kd is reported as > 4 mM (inactive).
`COC(=O)c1cncc(C(=O)OC)c1` was tested, and the Kd was > 4 mM (inactive).
With `O=c1[nH]cc(NC(=S)N2CCOCC2)c(=O)[nH]1` the Kd was > 4 mM (inactive).
In the case of `CCCCCCCCCCCCCCC(C(=O)OC)C(O)(CC(=O)OC)C(=O)OC` (stereo not given), the Kd is reported as > 4 mM (inactive).
`COC(=O)CC1SC(=O)NC1=O` (stereo not given) was tested, and the Kd was > 4 mM (inactive).
`c1ccc(-n2nnnc2Oc2cccc3cccnc23)cc1` was tested, and the Kd was > 4 mM (inactive).
For `O=C1c2ccncc2C(=O)N1CNc1ccccn1`, the Kd was > 4 mM (inactive).
For `CCOCC(=O)NCc1n[nH]c(=O)c2ccccc12`, the Kd was > 4 mM (inactive).
For `CCOC(=O)c1csc(N)n1`, the Kd was > 4 mM (inactive).
`Nc1ccc2c(c1)N1CCN=C1S2` was tested, and the Kd was > 4 mM (inactive).
`O=C(c1ccncc1)c1ccc(Br)cc1` was tested, and the Kd was > 4 mM (inactive).
For `CC(C)=CCCC1(C)C=Cc2c(O)c3c(c(CC=C(C)C)c2O1)OC12C(=CC4CC1C(C)(C)OC2(C/C=C(/C)C(=O)O)C4O)C3=O` (stereo not given), the Kd was > 4 mM (inactive).
For `CC(=O)Nc1sccc1C(N)=O`, the Kd was > 4 mM (inactive).
For `NCCc1c[nH]c2ccccc12`, the Kd was > 4 mM (inactive).
With `COC(=O)c1sccc1S(=O)(=O)N1CCCC1` the Kd was > 4 mM (inactive).
With `Cc1nnc(SCc2ccon2)n1-c1ccccc1` the Kd was > 4 mM (inactive).
For `C[C@H]1C(=O)O[C@@H]2CCN3CC=C(COC(=O)[C@](C)(O)[C@]1(C)O)[C@H]23`, the Kd was > 4 mM (inactive).
In the case of `Nc1cc2ccccc2cn1`, the Kd is reported as > 4 mM (inactive).
With `O=C(COc1ccccc1O)NCCO` the Kd was > 4 mM (inactive).
For `Cc1cc(O)c(C)c(O)c1C(=O)O`, the Kd was > 4 mM (inactive).
With `CS/C(N)=C\C(C)=O` the Kd was > 4 mM (inactive).
For `Cc1cc(N)no1`, the Kd was > 4 mM (inactive).
For `Cc1nc2nc(COc3ccccc3)nn2c(C)c1Cl`, the Kd was > 4 mM (inactive).
`O=C(O)c1cccnc1N1CCOCC1` was tested, and the Kd was > 4 mM (inactive).
For `CN1C(=O)Cc2cc(S(N)(=O)=O)ccc21`, the Kd was > 4 mM (inactive).
`O=C(O)CCC1NCC2CC1CN1CCCCC21` (stereo not given) was tested, and the Kd was > 4 mM (inactive).
For `Cc1cc2ncn(S(=O)(=O)N3CCOCC3)c2cc1C`, the Kd was > 4 mM (inactive).
In the case of `Cc1noc(C)c1C(=O)NCc1ccco1`, the Kd is reported as > 4 mM (inactive).
In the case of `Cc1onc(-c2ccccc2)c1CN`, the Kd is reported as > 4 mM (inactive).
`O=C1CSC(=O)N1CN1CCOCC1` was tested, and the Kd was > 4 mM (inactive).
With `CCn1c2ccccc2c2nn(C)c(=N)nc21` the Kd was > 4 mM (inactive).
With `O=C1CNC(=O)N1Cc1ccc(Br)cc1` the Kd was > 4 mM (inactive).
`COc1cc(C(=S)N2CCOCC2)ccc1O` was tested, and the Kd was > 4 mM (inactive).
For `CC1=C(C(N)=O)C(c2ccccc2)NC(=O)N1` (stereo not given), the Kd was > 4 mM (inactive).
`C/C=C/C(=O)Nc1ccc(NC(C)=O)cc1` was tested, and the Kd was > 4 mM (inactive).
For `Cc1cc(C(=O)Nc2ccc3c(c2)OCCO3)c(C)o1`, the Kd was > 4 mM (inactive).
In the case of `NC1CN2CCC1CC2` (stereo not given), the Kd is reported as > 4 mM (inactive).
With `O=C(c1cc(Cl)cc(Cl)c1)N1CCOCC1` the Kd was > 4 mM (inactive).
With `CC1(C)Oc2ccc(N)cc2O1` the Kd was > 4 mM (inactive).
For `Nc1cccc(C(=O)Nc2ccc(N)cc2Cl)c1`, the Kd was > 4 mM (inactive).
In the case of `CCNC(=S)NS(=O)(=O)c1ccccc1`, the Kd is reported as > 4 mM (inactive).
In the case of `S=c1[nH]nc(-c2cccnc2)n1C1CCCCC1`, the Kd is reported as > 4 mM (inactive).
With `Nc1ncnc(NCCO)c1[N+](=O)[O-]` the Kd was > 4 mM (inactive).
In the case of `NC(=O)COc1cccc2cccnc12`, the Kd is reported as > 4 mM (inactive).
With `COCc1nn2c(N)c(C#N)cnc2c1-c1ccccc1` the Kd was > 4 mM (inactive).
For `Cc1csc(NC(=O)c2cccs2)n1`, the Kd was > 4 mM (inactive).
In the case of `O=C(NC(=S)NC1CCSC1=O)c1ccco1` (stereo not given), the Kd is reported as > 4 mM (inactive).
`CN=C(C)c1c(O)n(C)c(=S)n(C)c1=O` was tested, and the Kd was > 4 mM (inactive).
For `COc1cc(N)ccc1NC(=O)c1cccs1`, the Kd was > 4 mM (inactive).
With `O=C(O)c1cc(=O)c2cccc(O)c2[nH]1` the Kd was > 4 mM (inactive).
`OCCNC(=S)Nc1ccccc1` was tested, and the Kd was > 4 mM (inactive).
With `c1ccc2[nH]c(NCCN3CCOCC3)nc2c1` the Kd was > 4 mM (inactive).
In the case of `CC1=CC(C)C(C(=O)O)C(C(=O)N2CCN(C)CC2)C1` (stereo not given), the Kd is reported as > 4 mM (inactive).
`NC(=O)c1cccc(N2C(=O)C=CC2=O)c1` was tested, and the Kd was > 4 mM (inactive).
For `COc1cc(O)ccc1C(C)=O`, the Kd was > 4 mM (inactive).
With `Cc1cc(S(=O)(=O)N2CCOCC2)ccc1F` the Kd was > 4 mM (inactive).
For `NS(=O)(=O)c1ccc(NC(=O)c2cccs2)cc1`, the Kd was > 4 mM (inactive).
With `O=C(O)c1ccc(N2CCCCC2)cc1` the Kd was > 4 mM (inactive).
In the case of `O=C(Nc1cnc2ccccn2c1=O)c1ccc(F)cc1`, the Kd is reported as > 4 mM (inactive).
In the case of `O=C1c2cccc3cc(S(=O)(=O)O)cc(c23)C(=O)N1O`, the Kd is reported as > 4 mM (inactive).
`O=C(O)Cn1cc(C(=O)C2CC2)c2ccccc21` was tested, and the Kd was > 4 mM (inactive).
For `Cc1cc(C(=O)N2CCOCC2)c(C)o1`, the Kd was > 4 mM (inactive).
With `NC(=O)NC1NC(=O)NC1=O` (stereo not given) the Kd was > 4 mM (inactive).
For `CC(C)(C)NC(=O)N1CCC(C(=O)O)CC1`, the Kd was > 4 mM (inactive).
With `COC(=O)[C@@H]1OC(=O)[C@H]2O[C@@]23[C@@]1(C)CCC1[C@@]2(C)CCC(=O)C(C)(C)C2C[C@@H](OC(C)=O)[C@]13C` (stereo not given in full) the Kd was > 4 mM (inactive).
`Nc1cc(=O)[nH]c(=S)n1-c1cccc(C(F)(F)F)c1` was tested, and the Kd was > 4 mM (inactive).
For `CC(=O)O[C@H]1CCC2(C)C3=C(CCC2C1(C)C)[C@]1(C)CCC(C(C)CCC=C(C)C)[C@@]1(C)CC3` (stereo not given in full), the Kd was > 4 mM (inactive).
In the case of `CS(=O)(=O)CCCCN=C=S`, the Kd is reported as > 4 mM (inactive).
With `CN1CCOc2cc(C(=O)O)ccc21` the Kd was > 4 mM (inactive).
`Cc1cc(C(=O)Nc2nnc(C(F)(F)F)s2)no1` was tested, and the Kd was > 4 mM (inactive).
`Cc1cc(NC(=O)CSc2ccnc(=O)[nH]2)no1` was tested, and the Kd was > 4 mM (inactive).
With `O=[n+]1cc(C2=CC=CCC2)n([O-])c2c1CCCCC2` the Kd was > 4 mM (inactive).
`O=C(O)CCCC(=O)Nc1nccs1` was tested, and the Kd was > 4 mM (inactive).
`COC[C@]12CN(C=O)C3[C@@H]4[C@H](OC)C1[C@]3(C1CC3(O)C(OC)C(O)C4(OC(C)=O)C1C3OC(=O)c1ccccc1)[C@@H](OC)C[C@H]2O` (stereo not given in full) was tested, and the Kd was > 4 mM (inactive).
With `COc1ccc2c3c1O[C@H]1C[C@@H](O)C=C[C@@]31CCN(C)C2` the Kd was > 4 mM (inactive).
For `CC1=C(/C=C/C(C)=C/C=C/C(C)=C/CO)C(C)(C)CCC1`, the Kd was > 4 mM (inactive).
`O=S(=O)(Cc1ccc(Cl)cc1)N1CCCC1` was tested, and the Kd was > 4 mM (inactive).
`Cn1c(SCC(N)=O)nc2c1c(=O)[nH]c(=O)n2C` was tested, and the Kd was > 4 mM (inactive).
`CC(=O)CS(=O)(=O)c1ccccc1` was tested, and the Kd was > 4 mM (inactive).
`Cc1c(C(=O)Nc2ccccc2)sc(N)c1C(N)=O` was tested, and the Kd was > 4 mM (inactive).
`CN=C(c1ccc([N+](=O)[O-])cc1)N(C)C` was tested, and the Kd was > 4 mM (inactive).
`CSc1nc2[nH]ncc2c(=O)[nH]1` was tested, and the Kd was > 4 mM (inactive).
`Cc1cccc(C)c1N1C(=O)CCC1=O` was tested, and the Kd was > 4 mM (inactive).
In the case of `CC(=O)Nc1ccn(Cc2c(F)cccc2Cl)n1`, the Kd is reported as > 4 mM (inactive).
With `O=C(O)CCNc1n[nH]c(=O)[nH]c1=O` the Kd was > 4 mM (inactive).
In the case of `O=C(O)CCN1CCOCC1`, the Kd is reported as > 4 mM (inactive).
With `O=C1NC(=O)C(Cc2cccs2)C(=O)N1` the Kd was > 4 mM (inactive).
For `CC(C)=CCCC1(C)C=Cc2c(O)c3c(c(CC=C(C)C)c2O1)OC12C(=CC4CC1C(C)(C)OC2(C/C=C(/C)C(=O)O)C4=O)C3=O` (stereo not given), the Kd was > 4 mM (inactive).
With `Cc1cc(=O)c2c(O)cc(O)c(C)c2o1` the Kd was > 4 mM (inactive).
For `O=S1(=O)CCC(NCc2ccccc2)C1` (stereo not given), the Kd was > 4 mM (inactive).
In the case of `O=C(O)Cn1cc(C(=O)c2cccs2)c2ccccc21`, the Kd is reported as > 4 mM (inactive).
For `Nc1cc(F)ccc1-n1ccnc1`, the Kd was > 4 mM (inactive).
With `NC(=O)CSc1nc2ccccc2[nH]1` the Kd was > 4 mM (inactive).
With `O=C(O)C1CC2CC1CCC2O` (stereo not given) the Kd was > 4 mM (inactive).
With `CC(C)(C)NC(=O)CN1C(=O)c2ccccc2S1(=O)=O` the Kd was > 4 mM (inactive).
In the case of `COc1ccc(-c2nnc(-c3ccc(N)cc3)o2)cc1`, the Kd is reported as > 4 mM (inactive).
With `Cn1c(=O)c2c(n(C)c1=O)=NC1(CCCCC1)N=2` the Kd was > 4 mM (inactive).
In the case of `CCc1noc(C)c1C(=O)N1CCCC1`, the Kd is reported as > 4 mM (inactive).
For `CN(C)Cc1c(N)cccc1O`, the Kd was > 4 mM (inactive).
`CS(=O)(=O)NC1CCN(Cc2ccccc2)CC1` was tested, and the Kd was > 4 mM (inactive).
With `COC(=O)C[C@@H]1C2(C)C(=O)[C@@H](CC3=C4CC(=O)O[C@@H](c5ccoc5)[C@]4(C)CCC32)[C@H](OC(C)=O)C1(C)C` (stereo not given in full) the Kd was > 4 mM (inactive).
In the case of `C[C@]12C=CC(=O)C=C1CCC1C2CC[C@]2(C)C(=O)CCC12` (stereo not given in full), the Kd is reported as > 4 mM (inactive).
In the case of `CN1CCc2c(sc(N)c2C#N)C1`, the Kd is reported as > 4 mM (inactive).
With `O=S1(=O)CCC(NCCO)C1` (stereo not given) the Kd was > 4 mM (inactive).
In the case of `COc1cc(C(C)=O)ccc1OC(=O)N1CCOCC1`, the Kd is reported as > 4 mM (inactive).
`Cc1cc(C(F)(F)F)nn1CC(N)=O` was tested, and the Kd was > 4 mM (inactive).
For `O=C(OCc1c(Cl)cccc1Cl)c1cnccn1`, the Kd was > 4 mM (inactive).
In the case of `CN=C(C)c1c(O)n(C)c(=O)n(C)c1=O`, the Kd is reported as > 4 mM (inactive).
